{
  "source": "patent US20220388979A1",
  "about": "“QUINOLINE DERIVATIVES AS PROTEIN KINASE INHIBITORS” (B.C.I. PHARMA, priority 2019, published 2022)",
  "key": {"male C57Bl6J mice": {"system": "male C57Bl6J mice", "test": "Streptozotocin-induced diabetic neuropathic pain model, Von Frey mechanical threshold (compound 32 study)", "format": "in vivo", "settings": "pregabalin subcutaneous 0.5 mg/mL in phosphate buffer (100 μL/10 g)", "description": "The experiment has been conducted in 8 weeks old male C57Bl6J mice (from Charles River). For this study, 6 mice per group have been used.\n(§1) Diabetes has been induced by a single IP injection of 200 μg/mL streptozotocin solution (100 μL/10 g). Glycemia has been tested before, D+3 and D+7 post-injection. All injected mice presented blood glucose concentration […] at D+7, and then have been used for analgesic testing of the compounds.\n(§2) Compound 32 has been orally administrated at 6 mg/mL in Capryol 90 solution (50 μL/10 g) and pregabalin has been subcutaneously injected at 0.5 mg/mL in phosphate buffer (100 μL/10 g) at D+14 and D+16. A time course measurement at +1 h, +2 h, +4 h and +6 h has been performed after compound administration.\n(§3) Mechanical threshold response of mice has been measured with calibrated Von Frey filaments using the up/down method, blind for manipulator. Measurements have been performed before streptozotocin injection and 14 days after.\n(§4) Statistical analysis was performed using SigmaPlot 12.5 software. Percentage of maximum possible effect is calculated as follow\n(§5) % MPE=[(Test−Prest)/(cut-off−Prest)]*100\n(§6) Where cut-off, Test and Pretest values correspond respectively to baseline measure, timepoint post-administration measure and measure before administration."}, "male C57B16J mice": {"system": "male C57B16J mice", "test": "Streptozotocin-induced diabetic neuropathic pain model, Von Frey mechanical threshold (compound 108 study)", "format": "in vivo", "settings": "pregabalin subcutaneous 0.5 mg/mL in phosphate buffer (100 μL/10 g)", "description": "The experiment has been conducted in 8 weeks old male C57B16J mice (from Charles River). For this study, 10 mice per group have been used.\nas §1\nas §2, with “Compound 108” for “Compound 32”, “at 2, 5 and 10” for “at 6”, “in 0.9% NaCl” for “in Capryol 90”, “and D+17.” for “and D+16.”\nas §3, §4, §5, §6"}},
  "data": [
    {"smiles": "CC(C)C[C@H](CN)CC(=O)O", "note": "[Pregabalin, pregabalin]", "values": [
      {"measurement": "Analgesic effect expressed as % MPE", "setting": "male C57Bl6J mice; +1 h", "value": "80.7 ± 10.8", "unit": "% MPE"},
      {"measurement": "Analgesic effect expressed as % of baseline", "setting": "male C57Bl6J mice; +1 h", "value": "81.2 ± 7.9 % of baseline"},
      {"measurement": "Analgesic effect expressed as % MPE", "setting": "male C57Bl6J mice; +2 h", "value": "84.6 ± 10.6", "unit": "% MPE"},
      {"measurement": "Analgesic effect expressed as % of baseline", "setting": "male C57Bl6J mice; +2 h", "value": "86.0 ± 9.1 % of baseline"},
      {"measurement": "Analgesic effect expressed as % MPE", "setting": "male C57Bl6J mice; +4 h", "value": "33.9 ± 5.8", "unit": "% MPE"},
      {"measurement": "Analgesic effect expressed as % of baseline", "setting": "male C57Bl6J mice; +4 h", "value": "45.0 ± 5.3 % of baseline"},
      {"measurement": "Analgesic effect expressed as % MPE", "setting": "male C57Bl6J mice; +6 h", "value": "5.9 ± 4.3", "unit": "% MPE"},
      {"measurement": "Analgesic effect expressed as % of baseline", "setting": "male C57Bl6J mice; +6 h", "value": "23.5 ± 2.1 % of baseline"},
      {"measurement": "Analgesic effect expressed as % MPE", "setting": "male C57B16J mice; +1 h", "value": "76.6 ± 15.4", "unit": "% MPE"},
      {"measurement": "Analgesic effect expressed as % of baseline", "setting": "male C57B16J mice; +1 h", "value": "80.6 ± 12.4 % of baseline"},
      {"measurement": "Analgesic effect expressed as % MPE", "setting": "male C57B16J mice; +2 h", "value": "79.5 ± 13.7", "unit": "% MPE"},
      {"measurement": "Analgesic effect expressed as % of baseline", "setting": "male C57B16J mice; +2 h", "value": "85.7 ± 10.7 % of baseline"},
      {"measurement": "Analgesic effect expressed as % MPE", "setting": "male C57B16J mice; +4 h", "value": "31.0 ± 17.0", "unit": "% MPE"},
      {"measurement": "Analgesic effect expressed as % of baseline", "setting": "male C57B16J mice; +4 h", "value": "45.6 ± 13.0 % of baseline"},
      {"measurement": "Analgesic effect expressed as % MPE", "setting": "male C57B16J mice; +6 h", "value": "10.9 ± 7.5", "unit": "% MPE"},
      {"measurement": "Analgesic effect expressed as % of baseline", "setting": "male C57B16J mice; +6 h", "value": "30.3 ± 4.8 % of baseline"}
    ]}
  ]
}
